Data taken from patent US20230391868A1, “COMPOSITIONS FOR AND METHODS OF TREATING CANCER” (The George Washington University, priority 2022, published 2023).

Columns and labels:
[1] = Laengle J, et al. (2020); cited from earlier work
[2] = tested on: THP1-derived macrophages; assay: M1/M2 marker gene expression in THP1-derived macrophages by qRT-PCR; type: cell-based, human; conditions: gene expression (FIG. 7H)
Protocol: (§1) Macrophages were polarized to M1-like phenotype using 50 ng/mL of interferon gamma (IFNγ, 575306, Biolegend) and 100 ng/mL of bacterial lipopolysaccharide (LPS, L2880, Sigma Aldrich, St. Louis, MO) for 24 hours. To polarize macrophages towards the M2-like phenotype, macrophages were stimulated with 20 ng/mL of IL-4 (214-14, PeproTech) and 20 ng/mL of IL-13 (575904, Biolegend). THP1 monocytes were treated with 5 ng/mL of phorbol 12-myristate 13-acetate (PMA) to induce differentiation into macrophages. Once converted to macrophages, media was replaced to remove PMA prior to treatment and/or polarization. Polarization towards M1 and M2 phenotypes was performed with respective recombinant human cytokines from PeproTech: 50 ng/mL of IFNγ (300-02), 20 ng/mL IL-4 (200-04), and 20 ng/mL IL-13 (200-13). 100 ng/mL LPS was also used to polarize toward the M1 phenotype. 3. In vivo Studies.
qRT-PCR: Total RNA was extracted from cells using the Trizol reagent according to manufacturer's instructions (ThermoFisher Scientific, 15596018). Samples were then processed immediately or stored at −80° C. RNA was quantified using a NanoDrop One Spectrophotometer (ThermoFisher Scientific). The 260/280 ratios were routinely over 1.8. Sample cDNA was produced using the iScript cDNA synthesis kit (Bio-Rad, 1708891). Target mRNA was quantified using MyIQ single-color real-time PCR detection system from Bio-Rad (Bio-Rad, Hercules, CA) and iQ SYBR green Supermix (Bio-Rad, 1708882). The following primers were synthesized by Invitrogen (Waltham, MA) with sequences designed by Origene (Rockville, MD): mouse R-actin (MP200232), mouse Nos2 (MP208933), mouse MRC1 (MP207800), human R-actin (HP204660), human IL-1β (HP200544), human MRC1 (HP206121), human NOS2 (HP200591), human CD209 (HP214086), mouse SIRPα (MP215450), mouse LRP1 (MP207604), human LRP1 (HP206040), mouse MFGE8 (MP208190), human MFGE8 (HP225757), mouse CD36 (MP201923), human CD36 (HP200058), and mouse CD47 (MP201932). Primers for mouse ARG-1 (PPM31770C) and human SIRPα (QT01031051) were purchased from Qiagen (Hilden, Germany). Human CD47 primer sequences were obtained from Sudo T, et al and are 5′-[…]-3′ (sense) (SEQ ID NO:01) and 5′-[…]-3′ (antisense) (SEQ ID NO:02) (Sudo T, et al. (2017) Oncol. Lett. 14:801-809). Human CD86 primer sequences are 5′-[…]-3′ (sense) (SEQ ID NO:03) and 5′-[…]-3′ (antisense) (SEQ ID NO:04). Mouse CD80 sequences are 5′-[…]-3′ (sense) (SEQ ID NO:05) and 5′-[…]-3′ (antisense) (SEQ ID NO:06). Cycling conditions were set as per manufacturer's instructions. Single product amplification was confirmed by melting curve analysis. Quantification is expressed in arbitrary units and target mRNA levels were normalized to R-actin expression. […]

[3] = tested on: A31A7 macrophages and BMDMs; assay: Macrophage M1/M2 marker gene expression by qRT-PCR; type: cell-based, mouse; conditions: A31A7; qRT-PCR (FIG. 7D-FIG. 7E)
Protocol: Bone marrow-derived macrophages were isolated from the femurs and tibias of wild-type C57/Bl6, HDAC6 knockout (C57BL/6J-Hdac6em2Lutzy/J, 029318, Jackson Laboratory), or UBC-GFP (C57BL/6-Tg(UBC-GFP)30Scha/J, 004353, Jackson Laboratory). Isolated bone marrow cells were cultured in RPMI 1640 complete medium with 10% FBS, 1% NEAA, and 1% penicillin-streptomycin in 5% CO2 at 37° C. Medium was supplemented with murine recombinant M-CSF (20 ng/mL, 576404, Biolegend) to differentiate monocytes into macrophages. Three days after bone marrow isolation, undifferentiated and floating cells were washed with PBS and replaced with fresh RPMI media. […]
as §1
qRT-PCR: Total RNA was extracted from cells using the Trizol reagent according to manufacturer's instructions (ThermoFisher Scientific, 15596018). Samples were then processed immediately or stored at −80° C. RNA was quantified using a NanoDrop One Spectrophotometer (ThermoFisher Scientific). The 260/280 ratios were routinely over 1.8. Sample cDNA was produced using the iScript cDNA synthesis kit (Bio-Rad, 1708891). Target mRNA was quantified using MyIQ single-color real-time PCR detection system from Bio-Rad (Bio-Rad, Hercules, CA) and iQ SYBR green Supermix (Bio-Rad, 1708882). The following primers were synthesized by Invitrogen (Waltham, MA) with sequences designed by Origene (Rockville, MD): mouse R-actin (MP200232), mouse Nos2 (MP208933), mouse MRC1 (MP207800), human R-actin (HP204660), human IL-1β (HP200544), human MRC1 (HP206121), human NOS2 (HP200591), human CD209 (HP214086), mouse SIRPα (MP215450), mouse LRP1 (MP207604), human LRP1 (HP206040), mouse MFGE8 (MP208190), human MFGE8 (HP225757), mouse CD36 (MP201923), human CD36 (HP200058), and mouse CD47 (MP201932). Primers for mouse ARG-1 (PPM31770C) and human SIRPα (QT01031051) were purchased from Qiagen (Hilden, Germany). Human CD47 primer sequences were obtained from Sudo T, et al and are 5′-[…]-3′ (sense) (SEQ ID NO:01) and 5′-[…]-3′ (antisense) (SEQ ID NO:02) (Sudo T, et al. (2017) Oncol. Lett. 14:801-809). Human CD86 primer sequences are 5′-[…]-3′ (sense) (SEQ ID NO:03) and 5′-[…]-3′ (antisense) (SEQ ID NO:04). Mouse CD80 sequences are 5′-[…]-3′ (sense) (SEQ ID NO:05) and 5′-[…]-3′ (antisense) (SEQ ID NO:06). Cycling conditions were set as per manufacturer's instructions. Single product amplification was confirmed by melting curve analysis. Quantification is expressed in arbitrary units and target mRNA levels were normalized to R-actin expression.

[4] = tested on: human THP1-derived macrophages; assay: Pro-phagocytic signal gene expression in THP1-derived macrophages; type: cell-based; conditions: human THP1-derived macrophages (FIG. 8E); corroboration of NextA increase
Protocol: as §1
(§2) qRT-PCR: Total RNA was extracted from cells using the Trizol reagent according to manufacturer's instructions (ThermoFisher Scientific, 15596018). Samples were then processed immediately or stored at −80° C. RNA was quantified using a NanoDrop One Spectrophotometer (ThermoFisher Scientific). The 260/280 ratios were routinely over 1.8. Sample cDNA was produced using the iScript cDNA synthesis kit (Bio-Rad, 1708891). Target mRNA was quantified using MyIQ single-color real-time PCR detection system from Bio-Rad (Bio-Rad, Hercules, CA) and iQ SYBR green Supermix (Bio-Rad, 1708882). The following primers were synthesized by Invitrogen (Waltham, MA) with sequences designed by Origene (Rockville, MD): mouse R-actin (MP200232), mouse Nos2 (MP208933), mouse MRC1 (MP207800), human R-actin (HP204660), human IL-1β (HP200544), human MRC1 (HP206121), human NOS2 (HP200591), human CD209 (HP214086), mouse SIRPα (MP215450), mouse LRP1 (MP207604), human LRP1 (HP206040), mouse MFGE8 (MP208190), human MFGE8 (HP225757), mouse CD36 (MP201923), human CD36 (HP200058), and mouse CD47 (MP201932). […] Quantification is expressed in arbitrary units and target mRNA levels were normalized to R-actin expression.

[5] = tested on: B16 melanoma cells; assay: Cd47 mRNA upon IFNγ stimulation in B16 cells; type: cell-based, mouse
Protocol: as §2, with “(MP201932). Primers for mouse ARG-1 (PPM31770C) and human SIRPα (QT01031051) were purchased from Qiagen (Hilden, Germany).” for “(MP201932).”
(§3) Although the mechanism by which IFNγ drives CD47 upregulation is unclear, IFNγ expression correlates to CD47 expression in skin cutaneous melanoma (Ye Z H, et al. (2021) Transl. Oncol. 14:101162). The kinetics of Cd47 mRNA in SM1 and B16 cells upon IFNγ stimulation (100 ng/mL) were evaluated and these mouse melanoma models were determined to have different kinetics (FIG. 9A-FIG. 9B). It was determined that 12 hours was a time point for both models to sustain the IFNγ-mediated upregulation. In FIG. 9B, the role of HDAC6 inhibitors NextA and Tubastatin A in abrogating Cd47 upregulation upon stimulation with IFNγ for 12 hours was evaluated.

[6] = tested on: SM1 melanoma cells; assay: Cd47 mRNA upon IFNγ stimulation in SM1 cells; type: cell-based, mouse
Protocol: as §2, with “(MP201932). Primers for mouse ARG-1 (PPM31770C) and human SIRPα (QT01031051) were purchased from Qiagen (Hilden, Germany).” for “(MP201932).”
as §3

[7] = biological target: mouse CD47 on the surface of SM1 melanoma cells (mouse) (UniProt Q61735); assay: flow cytometry titration on SM1 cells; free CD47 read with PE anti-mouse CD47 (miap301), bound antibody read with PE anti-rat IgG2a
Sequence of UniProt Q61735 (Q61735 19-303): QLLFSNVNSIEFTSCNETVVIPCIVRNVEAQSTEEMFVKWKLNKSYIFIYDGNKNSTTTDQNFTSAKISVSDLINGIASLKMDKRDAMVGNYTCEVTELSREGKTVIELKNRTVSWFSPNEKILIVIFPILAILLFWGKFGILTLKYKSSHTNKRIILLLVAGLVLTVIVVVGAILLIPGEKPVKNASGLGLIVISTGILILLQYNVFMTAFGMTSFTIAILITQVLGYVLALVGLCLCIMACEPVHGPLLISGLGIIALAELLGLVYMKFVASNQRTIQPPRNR

[8] = IFNγ stimulation (100 ng/mL) for 12 hours

Molecule	effects on THP1-derived macrophage M2-like polarization [2]	Arg1 in M2 polarized macrophages [3]	Cd80 expression in M1-like macrophages [3]	expression of pro-phagocytic signals [4]	further results
O=C(CCCCCCC(=O)Nc1ccccc1)NO [SAHA, suberoylanilide hydroxamic acid]					trastuzumab-mediated phagocytosis [1]: enhance trastuzumab-mediated phagocytosis
O=C(CCCCCCC(=O)Nc1ccc([C@H]2O[C@@H](CSc3nc(-c4ccccc4)c(-c4ccccc4)o3)C[C@@H](c3ccc(CO)cc3)O2)cc1)NO [Tubacin]	verified	downregulated	upregulated	corroborated	
CN1CCc2c(c3ccccc3n2Cc2ccc(C(=O)NO)cc2)C1 [Tubastatin A]	verified	downregulated	upregulated	corroborated	IFNγ-driven Cd47 upregulation at the transcriptional level ([5]; IFNγ for 12 hours): repressed these effects; IFNγ-driven Cd47 upregulation at the transcriptional level ([6]; IFNγ for 12 hours): repressed these effects
anti-mouse CD47 (clone miap301, 127502, Biolegend) (antibody)					lowest antibody concentration that provided maximum surface CD47 blockade and epitope saturation [7]: 25 µg/mL
IFNγ: interferon gamma, cytokine used to stimulate Cd47 upregulation (protein, UniProt P01580 23-155, looked up) Interferon gamma: HGTVIESLESLNNYFNSSGIDVEEKSLFLDIWRNWQKDGDMKILQSQIISFYLRLFEVLKDNQAISNNISVIESHLITTFFSNSKAKKDAFMSIAKFEVNNPQVQRQAFNELIRVVHQLLPESSLRKRKRSRC					Cd47 upregulation [5, 8]: 10 fold; Cd47 upregulation [6, 8]: 1.6 fold
